{
  "source": "patent US10933063B2",
  "about": "(priority 2017, dated 2021)",
  "molecular_target": "BTK (Homo sapiens (Human), UniProt Q06187)",
  "sequence (Q06187 whole entry, looked up, species assumed)": "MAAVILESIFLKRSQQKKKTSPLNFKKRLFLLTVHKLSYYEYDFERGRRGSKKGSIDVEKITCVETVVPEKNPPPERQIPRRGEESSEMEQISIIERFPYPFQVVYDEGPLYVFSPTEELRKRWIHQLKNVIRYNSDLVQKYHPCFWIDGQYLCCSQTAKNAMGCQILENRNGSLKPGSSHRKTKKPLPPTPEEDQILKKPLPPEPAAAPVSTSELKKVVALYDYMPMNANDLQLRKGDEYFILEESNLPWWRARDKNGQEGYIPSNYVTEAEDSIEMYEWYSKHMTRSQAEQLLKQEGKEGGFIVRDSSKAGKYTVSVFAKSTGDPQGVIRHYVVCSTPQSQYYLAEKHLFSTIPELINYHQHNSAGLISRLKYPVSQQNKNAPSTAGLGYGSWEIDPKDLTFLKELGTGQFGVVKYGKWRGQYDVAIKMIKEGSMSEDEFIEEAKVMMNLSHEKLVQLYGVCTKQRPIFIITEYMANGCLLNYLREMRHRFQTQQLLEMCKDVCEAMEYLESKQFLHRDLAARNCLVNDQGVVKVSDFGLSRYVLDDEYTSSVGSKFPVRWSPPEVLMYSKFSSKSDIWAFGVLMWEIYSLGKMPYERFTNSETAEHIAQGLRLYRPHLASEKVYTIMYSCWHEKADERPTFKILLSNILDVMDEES",
  "assay": "biochemical",
  "experimental": "Btk kinase activity was determined using a homogenous time resolved fluorescence (HTRF) methodology. Measurements were performed in a reaction volume of 15 μL using 384-well assay plates. Kinase enzyme, inhibitor, ATP and 1 μM peptide substrate were incubated in a reaction buffer compose of Hepes50 mM (pH7.0), NaN3 0.02%, BSA 0.01%, Orthocanadate 0.1 mM. […] For each compound, enzyme activity as measured at various concentrations of compound, Negative control reactions were performed in the absence of inhibitor in two replicates and eight no enzyme controls were used to determine baseline fluorescence levels.",
  "data": [
    {"smiles": "CC#CC(=O)N1CCC[C@H]1c1nc(-c2ccc(Oc3cccc(OC)c3C)cc2)c2cnccn12", "note": "[Example 21, (S)-1-(2-(1-(4-(3-methoxy-2-methylphenoxy)phenyl)imidazo[1,5-a]pyrazin-3-yl)pyrrolidin-1-yl)but-2-yn-1-one]", "values": [
      {"measurement": "IC50", "result": "100 to 1000", "unit": "nM"}
    ]},
    {"smiles": "CC#CC(=O)N1CC[C@@H](c2nc(-c3ccc(C(=O)Nc4ccccn4)cc3)c3cncc(OCC)n23)C1", "note": "[Example 193, (R)-4-(3-(1-(but-2-ynoyl)pyrrolidin-3-yl)-5-ethoxyimidazo[1,5-a]pyrazin-1-yl)-N-(pyridin-2-yl)benzamide]", "values": [
      {"measurement": "IC50", "result": "100 to 1000", "unit": "nM"}
    ]},
    {"smiles": "CC#CC(=O)N1CCC[C@H]1c1nc(-c2ccc(C(=O)Nc3ccccn3)cc2)c2cnccn12", "note": "[Example 166, (S)-4-(3-(1-(but-2-ynoyl)pyrrolidin-2-yl)imidazo[1,5-a]pyrazin-1-yl)-N-(pyridin-2-yl) benzamide]", "values": [
      {"measurement": "IC50", "result": "1000 to 10000", "unit": "nM"}
    ]},
    {"smiles": "CC#CC(=O)N1CC[C@@H](c2nc(-c3ccc(Oc4cccc(OC)c4F)cc3)c3c(CCC)nccn23)C1", "note": "[Example 110, (R)-1-(3-(1-(4-(2-fluoro-3-methoxyphenoxy)phenyl)-8-propylimidazo[1,5-a]pyrazin-3-yl)pyrrolidin-1-yl)but-2-yn-1-one]", "values": [
      {"measurement": "IC50", "result": "1000 to 10000", "unit": "nM"}
    ]},
    {"smiles": "CC#CC(=O)N1CCC[C@H]1c1nc(-c2ccc(COc3ccccc3)cc2)c2cnccn12", "note": "[Example 144, (S)-1-(2-(1-(4-(phenoxymethyl)phenyl)imidazo[1,5-a]pyrazin-3-yl)pyrrolidin-1-yl)but-2-yn-1-one]", "values": [
      {"measurement": "IC50", "result": "1000 to 10000", "unit": "nM"}
    ]},
    {"smiles": "C=CC(=O)N1CC[C@@H](c2nc(-c3ccc(Oc4cccc(OC)c4F)cc3)c3c(O)nccn23)C1", "note": "[Example 113, (R)-1-(3-(1-(4-(2-fluoro-3-methoxyphenoxy)phenyl)-8-hydroxyimidazo[1,5-a]pyrazin-3-yl)pyrrolidin-1-yl)prop-2-en-1-one]", "values": [
      {"measurement": "IC50", "result": "100 to 1000", "unit": "nM"}
    ]},
    {"smiles": "C=CC(=O)N1CC[C@@H](c2nc(-c3ccc(Oc4cccc(OC)c4F)cc3)c3c(C(C)C)nccn23)C1", "note": "[Example 111, (R)-1-(3-(1-(4-(2-fluoro-3-methoxyphenoxy)phenyl)-8-isopropylimidazo[1,5-a]pyrazin-3-yl)pyrrolidin-1-yl)prop-2-en-1-one]", "values": [
      {"measurement": "IC50", "result": "1000 to 10000", "unit": "nM"}
    ]},
    {"smiles": "C=CC(=O)N1CCCC[C@H]1c1nc(-c2ccc(COc3ccc(F)c(F)c3)cc2)c2c(C)nccn12", "note": "[Example 150, (S)-1-(2-(1-(4-((3,4-difluorophenoxy)methyl)phenyl)-8-methylimidazo[1,5-a]pyrazin-3-yl)piperidin-1-yl)prop-2-en-1-one]", "values": [
      {"measurement": "IC50", "result": "10 to 100", "unit": "nM"}
    ]},
    {"smiles": "C=CC(=O)N1CCCC[C@H]1c1nc(-c2ccc(COc3cccc(F)c3)cc2)c2c(C)nccn12", "note": "[Example 156, (S)-1-(2-(1-(4-((3-fluorophenoxy)methyl)phenyl)-8-methylimidazo[1,5-a]pyrazin-3-yl)piperidin-1-yl)prop-2-en-1-one]", "values": [
      {"measurement": "IC50", "result": "10 to 100", "unit": "nM"}
    ]},
    {"smiles": "C=CC(=O)N1CCCC[C@H]1c1nc(-c2ccc(OCc3cccc(F)c3)cc2)c2c(C)nccn12", "note": "[Example 139, (S)-1-(2-(1-(4-((3-fluorobenzyl)oxy)phenyl)-8-methylimidazo[1,5-a]pyrazin-3-yl)piperidin-1-yl)prop-2-en-1-one]", "values": [
      {"measurement": "IC50", "result": "10 to 100", "unit": "nM"}
    ]},
    {"smiles": "C=CC(=O)N1CC[C@@H](c2nc(-c3ccc(C(=O)Nc4ccccn4)cc3)c3c(C)ncc(C)n23)C1", "note": "[Example 182, (R)-4-(3-(1-acryloylpyrrolidin-3-yl)-5,8-dimethylimidazo [1,5-a]pyrazin-1-yl)-N-(pyridin-2-yl)benzamide]", "values": [
      {"measurement": "IC50", "result": "10 to 100", "unit": "nM"}
    ]},
    {"smiles": "CC#CC(=O)N1CC[C@@H](c2nc(-c3ccc(Oc4cccc(OC)c4F)cc3)c3cncc(C)n23)C1", "note": "[Example 73, (R)-1-(3-(1-(4-(2-fluoro-3-methoxyphenoxy)phenyl)-5-methylimidazo[1,5-a]pyrazin-3-yl)pyrrolidin-1-yl)but-2-yn-1-one]", "values": [
      {"measurement": "IC50", "result": "10 to 100", "unit": "nM"}
    ]},
    {"smiles": "CC#CC(=O)N1CCC[C@H]1c1nc(-c2ccc(C(=O)Nc3cc(C(F)(F)F)ccn3)cc2F)c2c(CO)nccn12", "note": "[Example 208, (S)-4-(3-(1-(but-2-ynoyl)pyrrolidin-2-yl)-8-(hydroxymethyl)imidazo [1,5-a]pyrazin-1-yl)-3-fluoro-N-(4-(trifluoromethyl)pyridin-2-yl)benzamide]", "values": [
      {"measurement": "IC50", "result": "100 to 1000", "unit": "nM"}
    ]}
  ]
}
